Literature values as cited in patent US7815936B2, “Use of granular materials based on pyrogenically produced silicon dioxide in pharmaceutical compositions” (Evonik Degussa GmbH, priority 2001, dated 2010).

Details: pure active constituent in water, reached only after shaking over several days

Question: For `C#C[C@]1(O)CC[C@H]2[C@@H]3CCc4cc(O)ccc4[C@H]3CC[C@@]21C` [ethinyl oestradiol], which saturation equilibrium value is on record?
Answer: 1.1 mg/100 ml
